Like-named read-outs stand apart in the source and are kept apart here.
What was measured:
Format in all cases: cell-based
[1] = biological target: protein kinases (human kinome) (Homo sapiens, UniProt Q13233)
[2] = biological target: T1, protein kinases (human kinome) (Homo sapiens, UniProt Q12851); conditions: for logFC MAP4K2 (Q12851): direction down; for logFC: MAP4K2 (Q12851)
T1 sequence (Q12851 1-820): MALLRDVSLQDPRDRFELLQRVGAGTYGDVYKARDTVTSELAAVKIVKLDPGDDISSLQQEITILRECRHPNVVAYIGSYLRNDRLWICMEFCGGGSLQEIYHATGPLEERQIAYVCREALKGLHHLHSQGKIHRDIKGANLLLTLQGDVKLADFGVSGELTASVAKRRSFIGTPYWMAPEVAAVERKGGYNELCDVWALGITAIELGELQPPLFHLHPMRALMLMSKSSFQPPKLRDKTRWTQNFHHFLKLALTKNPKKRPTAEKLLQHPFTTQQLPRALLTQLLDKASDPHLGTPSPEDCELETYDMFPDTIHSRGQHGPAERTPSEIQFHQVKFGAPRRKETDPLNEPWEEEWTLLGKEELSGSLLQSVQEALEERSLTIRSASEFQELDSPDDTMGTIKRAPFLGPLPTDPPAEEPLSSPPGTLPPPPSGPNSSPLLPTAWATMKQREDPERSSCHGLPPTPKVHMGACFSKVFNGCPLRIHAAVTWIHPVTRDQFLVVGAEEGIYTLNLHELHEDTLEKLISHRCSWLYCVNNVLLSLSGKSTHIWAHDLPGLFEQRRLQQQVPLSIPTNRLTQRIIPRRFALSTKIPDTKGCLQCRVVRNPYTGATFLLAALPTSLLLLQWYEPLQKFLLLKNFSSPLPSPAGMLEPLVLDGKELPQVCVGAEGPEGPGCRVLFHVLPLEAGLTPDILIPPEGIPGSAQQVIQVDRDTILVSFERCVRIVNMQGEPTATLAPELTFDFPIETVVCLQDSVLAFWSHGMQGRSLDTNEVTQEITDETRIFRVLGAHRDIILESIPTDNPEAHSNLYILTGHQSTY

[3] = biological target: protein kinases (human kinome) (Homo sapiens, UniProt Q15119); conditions: for logFC PDK2: Accession Q15119-1
[4] = biological target: T2, protein kinases (human kinome) (Homo sapiens, UniProt Q969Z0); conditions: Accession Q969Z0-1, direction down
T2 sequence (Q969Z0 108-631): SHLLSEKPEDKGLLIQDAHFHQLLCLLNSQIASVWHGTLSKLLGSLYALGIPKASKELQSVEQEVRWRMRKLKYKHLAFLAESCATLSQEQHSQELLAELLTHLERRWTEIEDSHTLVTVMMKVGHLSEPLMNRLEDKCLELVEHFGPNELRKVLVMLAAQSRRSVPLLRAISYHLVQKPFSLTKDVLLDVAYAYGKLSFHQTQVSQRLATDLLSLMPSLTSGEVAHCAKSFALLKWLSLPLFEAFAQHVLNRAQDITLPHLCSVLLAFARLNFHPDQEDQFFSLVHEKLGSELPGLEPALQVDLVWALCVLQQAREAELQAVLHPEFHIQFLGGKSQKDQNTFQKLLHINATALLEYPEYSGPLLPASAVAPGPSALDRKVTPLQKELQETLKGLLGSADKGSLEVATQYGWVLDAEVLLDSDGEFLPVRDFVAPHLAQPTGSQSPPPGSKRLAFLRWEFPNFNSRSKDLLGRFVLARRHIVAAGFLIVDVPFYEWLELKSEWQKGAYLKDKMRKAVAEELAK

[5] = Accession Q13233, experiment wp107, direction down
[6] = MAP3K1 (Q13233), experiment wp107
[7] = Accession Q13233, experiment wp056, direction down
[8] = MAP3K1 (Q13233), experiment wp056
[9] = Accession Q13233, experiment wp076, direction down
[10] = MAP3K1 (Q13233), experiment wp076

protein kinases (human kinome) (Homo sapiens, UniProt Q13233), sequence (Q13233 whole entry): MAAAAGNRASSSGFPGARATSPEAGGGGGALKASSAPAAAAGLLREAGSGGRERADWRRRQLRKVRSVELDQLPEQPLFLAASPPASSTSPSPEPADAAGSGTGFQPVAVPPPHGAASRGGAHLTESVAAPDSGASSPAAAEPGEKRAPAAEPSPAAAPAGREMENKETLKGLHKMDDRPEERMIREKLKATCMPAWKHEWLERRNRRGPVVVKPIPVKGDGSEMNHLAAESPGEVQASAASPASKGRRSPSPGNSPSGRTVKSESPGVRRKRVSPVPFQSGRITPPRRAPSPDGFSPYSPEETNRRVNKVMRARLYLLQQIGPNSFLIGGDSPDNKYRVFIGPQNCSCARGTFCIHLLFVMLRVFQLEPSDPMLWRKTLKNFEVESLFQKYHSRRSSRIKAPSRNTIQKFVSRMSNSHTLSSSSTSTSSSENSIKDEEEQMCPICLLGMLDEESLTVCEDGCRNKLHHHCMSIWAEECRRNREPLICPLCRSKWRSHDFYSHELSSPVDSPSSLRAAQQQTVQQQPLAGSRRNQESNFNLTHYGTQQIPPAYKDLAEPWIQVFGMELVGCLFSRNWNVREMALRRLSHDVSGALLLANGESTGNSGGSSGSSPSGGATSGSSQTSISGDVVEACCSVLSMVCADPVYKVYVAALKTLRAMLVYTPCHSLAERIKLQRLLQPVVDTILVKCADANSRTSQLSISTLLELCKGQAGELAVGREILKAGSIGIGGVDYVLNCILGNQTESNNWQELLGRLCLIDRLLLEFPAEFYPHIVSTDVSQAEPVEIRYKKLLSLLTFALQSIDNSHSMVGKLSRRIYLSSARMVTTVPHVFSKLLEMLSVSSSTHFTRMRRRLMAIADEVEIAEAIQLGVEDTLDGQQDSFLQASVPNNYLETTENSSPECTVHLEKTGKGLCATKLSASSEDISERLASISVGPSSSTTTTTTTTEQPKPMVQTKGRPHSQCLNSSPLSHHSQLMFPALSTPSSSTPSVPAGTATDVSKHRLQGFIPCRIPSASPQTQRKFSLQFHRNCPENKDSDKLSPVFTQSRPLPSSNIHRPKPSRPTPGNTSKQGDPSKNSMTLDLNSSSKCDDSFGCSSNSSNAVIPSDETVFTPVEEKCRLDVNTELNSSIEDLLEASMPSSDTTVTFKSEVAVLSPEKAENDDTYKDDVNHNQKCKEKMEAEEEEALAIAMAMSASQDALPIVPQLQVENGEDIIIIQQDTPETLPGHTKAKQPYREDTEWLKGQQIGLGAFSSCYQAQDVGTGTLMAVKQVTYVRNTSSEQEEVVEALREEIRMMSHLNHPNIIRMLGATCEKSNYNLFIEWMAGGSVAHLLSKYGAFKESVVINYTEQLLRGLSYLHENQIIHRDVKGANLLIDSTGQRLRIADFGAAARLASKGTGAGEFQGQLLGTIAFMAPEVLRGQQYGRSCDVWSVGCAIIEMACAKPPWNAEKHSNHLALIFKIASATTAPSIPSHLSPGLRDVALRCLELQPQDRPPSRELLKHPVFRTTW

Cc1ccc(NC(=O)c2cccc(C(F)(F)F)c2)cc1N1Cc2cnc(Nc3ccc(N4CCN(CCCOc5cccc6c5C(=O)N(C5CCC(=O)NC5=O)C6=O)CC4)nc3)nc2N(C)C1=O (stereo not drawn) [DB0662]
logFC MAP3K1 ([1]; Accession Q13233, experiment wp168, direction down): −0.7087
logFC MAP3K1 ([1]; MAP3K1 (Q13233), experiment wp168): −0.7087

Cc1ccc(NC(=O)c2cccc(C(F)(F)F)c2)cc1N1Cc2cnc(Nc3ccc(N4CCN(Cc5cn(CCCCCOc6cccc7c6C(=O)N(C6CCC(=O)NC6=O)C7=O)nn5)CC4)nc3)nc2N(C)C1=O (stereo not drawn) [DB0646, N-(3-(7-((6-(4-((1-(5-((2-(2,6-Dioxopiperidin-3-yl)-1,3-dioxoisoindolin-4-yl)oxy)pentyl)-1H-1,2,3-triazol-4-yl)methyl)piperazin-1-v)pyridin-3-yl)amino)-1-methyl-2-oxo-1,4-dihydropyrimido[4,5-d]pyrimidin-3(2H)-yl)-4-methylphenyl)-3-(trifluoromethyl)benzamide]
logFC MAP4K2 (Q12851) ([2]; Experiment wp045): −0.7569
logFC MAP4K2 (Q12851) ([2]; Experiment wp103): −0.4625
logFC MAP4K2 (Q12851) ([2]; Experiment wp107): −0.6245
logFC MAP4K2 (Q12851) ([2]; Experiment wp117): −0.5616
logFC MAP4K2 (Q12851) ([2]; Experiment wp152): −0.7981
logFC MAP4K2 (Q12851) ([2]; Experiment wp160, 4 hr): −0.6132
logFC MAP4K2 (Q12851) ([2]; Experiment wp160, 8 hr): −1.155
logFC ([2]; experiment wp045): −0.7569
logFC ([2]; experiment wp103): −0.4625
logFC ([2]; experiment wp107): −0.6245
logFC ([2]; experiment wp117): −0.5616
logFC ([2]; experiment wp152): −0.7981
logFC ([2]; experiment wp160, 4 hr): −0.6132
logFC ([2]; experiment wp160, 8 hr): −1.155
logFC MAP3K1 [1, 5]: −0.3767
logFC MAP3K1 ([1]; Accession Q13233, experiment wp152, direction down): −0.6139
logFC MAP3K1 ([1]; Accession Q13233, experiment wp160, 8 hr, direction down): −0.7241
logFC MAP3K1 [1, 6]: −0.3767
logFC MAP3K1 ([1]; MAP3K1 (Q13233), experiment wp152): −0.6139
logFC MAP3K1 ([1]; MAP3K1 (Q13233), experiment wp160, 8 hr): −0.7241

CN(C)C(=O)c1cc2cnc(Nc3ccc(N4CCN(CCCCNC(=O)COc5cccc6c5C(=O)N(C5CCC(=O)NC5=O)C6=O)CC4)cn3)nc2n1C1CCCC1 (stereo not drawn) [BSJ.04.132]
logFC PDK2 ([3]; experiment wp084): −0.5289
logFC PDK2 (Q15119-1) ([3]; experiment wp084): −0.5289
logFC TBRG4 ([4]; experiment wp084): −0.6395

Nc1ncc(-c2ccc(S(=O)(=O)N(CCCNC(=O)CCOCCOCCOCCOCCOCCNc3cccc4c3C(=O)N(C3CCC(=O)NC3=O)C4=O)C3CC3)cc2)cc1-c1ccc2c(c1)CCNC2=O (stereo not drawn) [WH.10417.099]
logFC MAP3K1 [1, 7]: −0.5034
logFC MAP3K1 [1, 5]: −0.4673
logFC MAP3K1 [1, 8]: −0.5034
logFC MAP3K1 [1, 6]: −0.4673

Cc1ccc(C(=O)Nc2ccc(CN3CCN(CCOCCOCCNC(=O)CNc4cccc5c4C(=O)N(C4CCC(=O)NC4=O)C5=O)CC3)c(C(F)(F)F)c2)cc1C#Cc1cnc2cccnn12 (stereo not drawn) [TL13.150]
logFC MAP4K2 (Q12851) ([2]; Experiment wp081): −1.088
logFC ([2]; experiment wp081): −1.088

Cn1c(=O)c(-c2c(Cl)cccc2Cl)cc2cnc(Nc3ccc(OCCNC(=O)CCCCCCNC(=O)COc4cccc5c4C(=O)N(C4CCC(=O)NC4=O)C5=O)cc3)nc21 (stereo not drawn) [SB1.G.192.1]
logFC TBRG4 ([4]; experiment wp081): −0.3452

Cc1ccc(C(=O)Nc2ccc(CN3CCN(CCCOCCOCCOCCNC(=O)COc4cccc5c4C(=O)N(C4CCC(=O)NC4=O)C5=O)CC3)c(C(F)(F)F)c2)cc1C#Cc1cnc2cccnn12 (stereo not drawn) [SB1.G.187]
logFC MAP4K2 (Q12851) ([2]; Experiment wp056): −1.847
logFC MAP4K2 (Q12851) ([2]; Experiment wp103): −1.79
logFC MAP4K2 (Q12851) ([2]; Experiment wp105): −1.757
logFC MAP4K2 (Q12851) ([2]; Experiment wp107): −2.048
logFC MAP4K2 (Q12851) ([2]; Experiment wp114): −0.7516
logFC ([2]; experiment wp056): −1.847
logFC ([2]; experiment wp103): −1.79
logFC ([2]; experiment wp105): −1.757
logFC ([2]; experiment wp107): −2.048
logFC ([2]; experiment wp114): −0.7516
logFC PDK2 ([3]; experiment wp056): −0.4016
logFC PDK2 (Q15119-1) ([3]; experiment wp056): −0.4016
logFC MAP3K1 [1, 7]: −0.7809
logFC MAP3K1 ([1]; Accession Q13233, experiment wp103, direction down): −0.5815
logFC MAP3K1 [1, 5]: −0.6693
logFC MAP3K1 [1, 8]: −0.7809
logFC MAP3K1 ([1]; MAP3K1 (Q13233), experiment wp103): −0.5815
logFC MAP3K1 [1, 6]: −0.6693

CNC(=O)c1ccccc1Nc1cc(Nc2ccc(N3CCN(CCOCCOCCNC(=O)CNc4cccc5c4C(=O)N(C4CCC(=O)NC4=O)C5=O)CC3)cc2OC)ncc1C(F)(F)F (stereo not drawn) [MFH.5.103.1]
logFC TBRG4 ([4]; experiment wp076): −0.3858

CCc1cnn2c(N(Cc3ccc(N)nc3)C(=O)CCOCCOCCOCCNC(=O)CNc3cccc4c3C(=O)N(C3CCC(=O)NC3=O)C4=O)cc(N3CCCC[C@H]3CCO)nc12 (stereo partly drawn) [MFH.5.115.2]
logFC MAP3K1 [1, 9]: −0.3528
logFC MAP3K1 [1, 10]: −0.3528

CC(=O)c1c(C)c2cnc(Nc3ccc(N4CCN(CCOCCOCCOCCNC(=O)COc5cccc6c5C(=O)N(C5CCC(=O)NC5=O)C6=O)CC4)cn3)nc2n(C2CCCC2)c1=O (stereo not drawn) [BSJ.03.123]
logFC PDK2 ([3]; experiment wp084): −0.3615
logFC PDK2 (Q15119-1) ([3]; experiment wp084): −0.3615

C=CCn1c(=O)c2cnc(Nc3ccc(N4CCN(CCCNc5cccc6c5C(=O)N(C5CCC(=O)NC5=O)C6=O)CC4)cc3)nc2n1-c1cccc(C(C)(C)O)n1 (stereo not drawn) [ZNL.02.096]
logFC PDK2 ([3]; experiment wp056): −0.5561
logFC PDK2 ([3]; experiment wp118): −0.37
logFC PDK2 (Q15119-1) ([3]; experiment wp056): −0.5561
logFC PDK2 (Q15119-1) ([3]; experiment wp118): −0.37

Cc1ccc(NC(=O)c2cccc(C(F)(F)F)c2)cc1N1Cc2cnc(Nc3ccc(N4CCN(CCCCCCOc5cccc6c5C(=O)N(C5CCC(=O)NC5=O)C6=O)CC4)nc3)nc2N(C)C1=O (stereo not drawn) [DB0663]
logFC MAP4K2 (Q12851) ([2]; Experiment wp046): −0.3823
logFC ([2]; experiment wp045): −0.3823

Cc1ncsc1-c1ccc([C@H](C)NC(=O)[C@@H]2C[C@@H](O)CN2C(=O)[C@@H](NC(=O)CCOCCOCCN2CCN(c3ccc(Nc4ncc(Cl)c(Nc5ccccc5S(=O)(=O)C(C)C)n4)cc3)CC2)C(C)(C)C)cc1 [FMF.06.098.1]
logFC MAP4K2 (Q12851) ([2]; Experiment wp108): −0.5507
logFC MAP4K2 (Q12851) ([2]; Experiment wp131): −0.6092
logFC ([2]; experiment wp108): −0.5507
logFC ([2]; experiment wp131): −0.6092

CC(C)S(=O)(=O)c1ccccc1Nc1nc(Nc2ccc(N3CCN(CCOCCNC(=O)CNc4cccc5c4C(=O)N(C4CCC(=O)NC4=O)C5=O)CC3)cc2)ncc1Cl (stereo not drawn) [SK.3.91]
logFC TBRG4 ([4]; experiment wp160, 1 hr): −0.9113
logFC MAP3K1 ([1]; Accession Q13233, experiment wp105, direction down): −0.3258
logFC MAP3K1 ([1]; MAP3K1 (Q13233), experiment wp105): −0.3258

Cc1ccc(NC(=O)c2cccc(C(F)(F)F)c2)cc1N1Cc2cnc(Nc3ccc(N4CCN(CCCCC(=O)N[C@H](C(=O)N5C[C@H](O)C[C@H]5C(=O)N[C@@H](C)c5ccc(-c6scnc6C)cc5)C(C)(C)C)CC4)nc3)nc2N(C)C1=O [DB1113]
logFC MAP4K2 (Q12851) ([2]; Experiment wp168): −2.432
logFC ([2]; experiment wp168): −2.432

O=C1CCC(N2C(=O)c3cccc(NCCCCCCCCN4CCC(NC(=O)c5[nH]ncc5NC(=O)c5c(Cl)cccc5Cl)CC4)c3C2=O)C(=O)N1 (stereo not drawn) [MFH.5.126.1]
logFC MAP3K1 [1, 9]: −0.5947
logFC MAP3K1 [1, 10]: −0.5947

— patent US20240269139A1, “COMPOUNDS FOR TARGETED PROTEIN DEGRADATION OF KINASES” (DANA-FARBER CANCER INSTITUTE, INC., priority 2020, published 2024)
